The record followed here is patent US8507488B2, “Fused nitrogen containing heterocycles and compositions thereof as kinase inhibitors” (IRM LLC, priority 2008, dated 2013).

The target in experiment [1] is T1, full length rTrkA and mNGF (Rattus norvegicus, UniProt P35739).
T1 construct: co-expressing full length rTrkA and mNGF; expressed in transfected cells; host or cells: Ba/F3 cells
Briefly: Inhibition of proliferation of Ba/F3 cells co-expressing full length rTrkA and mNGF (BaF3/TrkA-NFG). In kind it is cell-based. As to conditions: for IC50 in BaF3/TrkA-NFG CTG cellular assay: BaF3/TrkA-NFG cells; for BaF3 TRKA-NGF CTG IC 50: BaF3 TRKA-NGF cells, CTG readout.

For experiment [2], the target named is T2, Tel-TrkA (Homo sapiens, UniProt P04629).
T2 construct: dimerization domain of Tel (ETV6) transcription factor (fusion partner, human ETV6 P41212); expressed in transfected cells; host or cells: luciferase expressing Ba/F3 murine hematopoietic progenitor cells; the other entry of the earlier key: ETV6 (P41212, Transcription factor ETV6)
T2 sequence (P04629 510-796 limits assumed): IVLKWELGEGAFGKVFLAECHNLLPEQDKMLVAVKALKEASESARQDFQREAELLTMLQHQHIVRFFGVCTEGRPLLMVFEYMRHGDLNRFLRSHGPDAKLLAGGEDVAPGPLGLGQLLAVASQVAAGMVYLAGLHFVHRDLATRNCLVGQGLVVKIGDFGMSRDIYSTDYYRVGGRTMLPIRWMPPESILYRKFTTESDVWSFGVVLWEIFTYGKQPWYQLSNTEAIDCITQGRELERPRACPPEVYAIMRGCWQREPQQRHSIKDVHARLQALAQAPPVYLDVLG
Briefly: Inhibition of proliferation of Ba/F3 cells expressing Tel-TrkA (BaF3/Tel-TrkA, luciferase/Bright Glo readout). As to conditions: read-out: IC50 in BaF3/Tel-TrkA CTG cellular assay. In kind it is cell-based.

In experiment [3] the test system is parental BaF3 cells. Briefly: Proliferation of parental (untransformed) Ba/F3 cells maintained with IL3. In kind it is cell-based, murine. The following applies: Mus musculus. Summed up: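 Untransformed murine Ba/F3 cells kept in RPMI/10% FCS with 5 ng/ml murine IL3, plated at 2000 cells/well and exposed to 12 concentrations of compound for 48 h at 37 °C. Viability read by Bright-Glo luciferase luminescence; IC50 from linear regression of % inhibition.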

The target in experiment [4] is T3, Tel-TrkB (Homo sapiens, UniProt Q16620).
T3 construct: dimerization domain of Tel (ETV6) transcription factor (fusion partner, human ETV6 P41212); expressed in transfected cells; host or cells: luciferase expressing Ba/F3 murine hematopoietic progenitor cells; the other entry of the earlier key: ETV6 (P41212, Transcription factor ETV6)
T3 sequence (Q16620 538-822 limits assumed): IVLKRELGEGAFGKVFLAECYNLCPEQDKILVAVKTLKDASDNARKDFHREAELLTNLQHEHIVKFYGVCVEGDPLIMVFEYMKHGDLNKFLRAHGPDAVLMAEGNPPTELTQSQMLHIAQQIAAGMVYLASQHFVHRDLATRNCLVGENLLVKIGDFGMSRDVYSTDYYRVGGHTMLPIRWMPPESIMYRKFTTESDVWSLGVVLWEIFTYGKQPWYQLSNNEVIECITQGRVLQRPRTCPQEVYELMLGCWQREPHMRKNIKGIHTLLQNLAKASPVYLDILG
Briefly: Inhibition of proliferation of Ba/F3 cells expressing Tel-TrkB (BaF3/Tel-TrkB). The class given is cell-based. An outline of the steps: (§1)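 Luciferase-expressing murine Ba/F3 cells transformed with human Tel-TrkA or Tel-TrkB, plated at 2000 cells/well in IL3-free RPMI/10% FBS. Exposed to 12 concentrations of 3-fold serially diluted compound for 48 hours at 37° C, 5% CO2. Bright Glo luminescence read-out, with IC50 from linear regression of percent inhibition.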

Experiment [5] has as its system KM12 luc. Briefly: KM12 luc cell proliferation assay (Table 8). The class given is cell-based. As to conditions: KM12 luc cells; read-out: KM12 luc IC 50.
Experiment [6] concerns the target T4, Tel-TrkC (Homo sapiens, UniProt Q16288).
T4 construct: The cells also express luciferase as the viability read-out; it is not fused to the kinase; P41212 (Transcription factor ETV6)
Briefly: Inhibition of proliferation of Ba/F3 cells expressing Tel-TrkC (BaF3/Tel-TrkC). In kind it is cell-based. As to conditions: read-out: Ba/F3 Tel-TrkC IC 50. The protocol: Test compounds were dissolved in DMSO (10 mM) and transferred into 1.4 mL flat bottom or V-shaped Matrix tubes carrying a unique 2D matrix chip by individual compound hubs. The numbers of these chips were distinctively linked to the individual compound identification numbers. The stock solutions were stored at −20° C. if not used immediately. For the test procedure the vials were defrosted and identified by a scanner whereby a working sheet is generated that guides the subsequent working steps.
Compound dilutions were made in 384 well plates. This format enabled the assay of maximally 28 individual test compounds at 12 concentrations (single points) including 2 reference compounds. The dilution protocol included the production of pre-dilution plates, master plates and assay plates: • Compound plates: 30 μL of individual compound (10 mM) DMSO solution including standard compound were transferred into columns 1 and 13 of a 384 well plate. 20 μL of DMSO were added to the rest of the wells and the compounds were serially diluted (1:3) by transferring 10 μL from a well in column 1 or 13 to the next well in column 2 or 14 respectively and successively with the help of a Minitrack robot. • Assay plates: Identical assay plates were then prepared by adding […] each of compound dilutions of the compound plates into 384-well “assay plates”. In the following the compounds were mixed with 50 μL of assays components (cells or enzyme) and tested for their inhibitory activity.
Compounds of Formula (I) were tested for their antiproliferative effect on Ba/F3 cells expressing either Tel-TrkA, Tel-TrkB or Tel-TrkC and an additional panel of 34 selected diverse kinases activated by fusion to the dimerizing partners Bcr or Tel (Abl, A1K, BMX, EphA3, EphB2, FGFR2, FGFR3, FGFR4, FGR, FLT1, FLT3, FLT4, FMS, IGF1R, InsR, JAK1, JAK2, JAK3, KDR, Kit, Lck, Lyn, MER, MET, PDGFRb, RET, RON, Ros-1, Src, Aurora, TIE2, TYK2, Tie1, ZAP70). The antiproliferative effect of these compounds on the different cell lines and on the non transformed cells were tested at 12 different concentrations of 3-fold serially diluted compounds in 384 well plates as described above (in media lacking IL3). The IC50 values of the compounds the different cell lines were determined from dose response curves.
The cell line used is the luciferase expressing Ba/F3 murine hematopoietic progenitor cell line transformed with human Tel-TrkA, Tel-TrkB or Tel-TrkC cDNAs (Ba/F3 EN A/B/C). These cells maintained in RPMI/10% fetal bovine serum (RPMI/FCS) supplemented with penicillin 50 mg/mL, streptomycin 50 mg/mL and L-glutamine […]. Untransformed Ba/F3 cells were similarly maintained with the addition 5 ng/ml of murine recombinant IL3. 50 μl of a Ba/F3 or Ba/F3 EN A/B/C cell suspension were plated in Greiner 384 well microplates (white)) at a density of 2000 cells per well. 50 nl of serially diluted test compound (10-0.0001 mM in DMSO solution) is added to each well. The cells were incubated for 48 hours at 37° C., 5% CO2. 25 μl of Bright Glo® (Promega) luciferase substrate is added to each well. The emited luminiscence is quantified using the ACQUEST™ luminescence system (Molecular Devices). IC50 values were calculated by linear regression analysis of the percentage inhibition of each compound at 12 concentrations.

For experiment [7], the target named is T2, Tel-TrkA. Nature of the experiment: Inhibition of proliferation of Ba/F3 cells expressing Tel-TrkA (BaF3/Tel-TrkA, luciferase/Bright Glo readout). The class given is cell-based. As to conditions: read-out: Ba/F3 Tel-TrkA IC 50. An outline of the steps:
as §1

[8] abbreviates: BaF3, parental BaF3 cells, read-out: IC50 in BaF3 CTG cellular assay.
Where [9] appears, read: BaF3/Tel-TrkB cells, read-out: IC50 in BaF3/Tel-TrkB CTG cellular assay.
The mark [10] stands for this setting: BaF3, parental Ba/F3 cells, read-out: Ba/F3 IC 50.
Where [11] appears, read: Ba/F3 Tel-TrkB cells, read-out: Ba/F3 Tel-TrkB IC 50.

Where two headings read alike, the source gives them in different places.

T4 sequence (Q16288 whole entry, the tested form may be a part): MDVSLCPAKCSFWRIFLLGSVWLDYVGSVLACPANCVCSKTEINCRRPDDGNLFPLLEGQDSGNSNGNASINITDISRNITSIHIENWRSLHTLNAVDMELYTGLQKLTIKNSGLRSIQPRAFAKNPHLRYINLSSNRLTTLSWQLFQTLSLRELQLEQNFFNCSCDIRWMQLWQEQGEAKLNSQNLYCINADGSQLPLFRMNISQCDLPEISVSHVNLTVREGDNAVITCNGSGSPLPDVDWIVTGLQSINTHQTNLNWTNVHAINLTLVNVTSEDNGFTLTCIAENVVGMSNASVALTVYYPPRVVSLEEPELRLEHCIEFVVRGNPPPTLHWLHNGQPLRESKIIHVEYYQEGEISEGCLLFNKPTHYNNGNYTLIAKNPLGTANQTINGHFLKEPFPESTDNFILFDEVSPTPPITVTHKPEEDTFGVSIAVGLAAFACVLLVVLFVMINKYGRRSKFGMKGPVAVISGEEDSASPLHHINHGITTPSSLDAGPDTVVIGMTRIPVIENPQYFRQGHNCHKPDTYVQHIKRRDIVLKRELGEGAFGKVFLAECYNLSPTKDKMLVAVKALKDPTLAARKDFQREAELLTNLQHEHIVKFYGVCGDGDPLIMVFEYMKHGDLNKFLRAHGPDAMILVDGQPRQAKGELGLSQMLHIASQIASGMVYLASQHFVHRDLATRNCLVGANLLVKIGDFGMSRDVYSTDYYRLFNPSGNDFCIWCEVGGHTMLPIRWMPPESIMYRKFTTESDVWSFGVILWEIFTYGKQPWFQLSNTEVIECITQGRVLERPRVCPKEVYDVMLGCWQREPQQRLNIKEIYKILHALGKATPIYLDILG
T1 sequence (P35739 33-799): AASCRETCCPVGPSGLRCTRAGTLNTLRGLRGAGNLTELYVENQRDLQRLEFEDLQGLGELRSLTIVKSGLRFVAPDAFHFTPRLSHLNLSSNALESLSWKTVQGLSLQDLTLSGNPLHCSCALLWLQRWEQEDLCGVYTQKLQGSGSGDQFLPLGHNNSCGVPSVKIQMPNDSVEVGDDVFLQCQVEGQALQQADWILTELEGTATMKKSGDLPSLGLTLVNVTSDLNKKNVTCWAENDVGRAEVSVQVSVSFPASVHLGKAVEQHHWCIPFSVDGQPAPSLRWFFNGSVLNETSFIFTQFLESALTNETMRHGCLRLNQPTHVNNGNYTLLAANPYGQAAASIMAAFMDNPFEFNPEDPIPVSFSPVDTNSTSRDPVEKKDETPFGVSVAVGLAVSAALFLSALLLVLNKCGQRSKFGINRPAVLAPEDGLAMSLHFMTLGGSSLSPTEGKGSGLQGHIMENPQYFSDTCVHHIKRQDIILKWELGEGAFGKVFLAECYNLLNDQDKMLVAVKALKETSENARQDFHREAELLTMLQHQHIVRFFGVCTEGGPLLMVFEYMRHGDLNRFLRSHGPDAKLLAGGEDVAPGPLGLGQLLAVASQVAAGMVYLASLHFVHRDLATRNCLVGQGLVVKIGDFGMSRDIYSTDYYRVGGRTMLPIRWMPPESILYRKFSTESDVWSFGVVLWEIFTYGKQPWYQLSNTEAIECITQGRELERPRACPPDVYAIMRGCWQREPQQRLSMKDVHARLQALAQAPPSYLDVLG
T1 sequence (P01139 122-241 partner): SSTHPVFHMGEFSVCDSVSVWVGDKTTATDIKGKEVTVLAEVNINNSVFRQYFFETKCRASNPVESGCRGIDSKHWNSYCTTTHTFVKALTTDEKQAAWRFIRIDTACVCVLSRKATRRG

Consider `O[C@@H]1CCN(c2nccc(-c3cccc(-c4cnc5ccc(N6CCC[C@@H]6c6cccc(F)c6)nn45)n3)n2)C1` [Compound 14-4, (R)-1-(4-(6-(6-((R)-2-(3-fluorophenyl)pyrrolidin-1-yl)imidazo[1,2-b]pyridazin-3-yl)pyridin-2-yl)pyrimidin-2-yl)pyrrolidin-3-ol], for which, in experiment [1], the “IC50 in BaF3/TrkA-NFG CTG cellular assay” value is 4.2 nM. Also, the IC50 in experiment [2] was determined as 2.2 nM; in experiment [3] (setting [8]) it was 4070 nM; in experiment [4] (setting [9]) it was 3.3 nM.
In the case of `Cc1ccc(C)c(C2CCCN2c2ccc3ncc(-c4cccc(C(=O)O)n4)n3n2)c1` (centres unmarked) [Table 3-Compound 1], the “BaF3 TRKA-NGF CTG IC 50” value in experiment [1] is 1730 nM. In addition, the IC50 is 190 nM in experiment [5]; > 10000 nM in experiment [3] (setting [10]); 240 nM in experiment [6]; 2310 nM in experiment [7]; 470 nM in experiment [4] (setting [11]).
Take `N#Cc1cccc(-c2cnc3ccc(N4CCC(=O)N4c4cccc(F)c4)nn23)c1` [Table 3-Compound 34]: the “BaF3 TRKA-NGF CTG IC 50” value in experiment [1] is 500 nM. The IC50 in experiment [5] was 10 nM; in experiment [3] (setting [10]), > 10000 nM; in experiment [6] it was 130 nM; in experiment [7], 1200 nM; in experiment [4] (setting [11]), 400 nM.
In the case of `N#Cc1ccc(-c2cnc3ccc(N4CCCC4c4cc(F)ccc4F)nn23)cc1OCCN1CCOCC1` (centres unmarked) [Table 5-Compound 17], the “BaF3 TRKA-NGF CTG IC 50” value in experiment [1] turned out to be 34 nM. Also, the IC50 was 8.8 nM in experiment [5]; > 10000 nM in experiment [3] (setting [10]); 3.1 nM in experiment [6]; 6.4 nM in experiment [7]; 15 nM in experiment [4] (setting [11]).
As to `Fc1cccc([C@H]2CCCN2c2ccc3ncc(-c4cccc(N5CCN(c6cccnc6)CC5)n4)n3n2)c1` [Table 7-Compound 255], the “BaF3 TRKA-NGF CTG IC 50” value in experiment [1] was found to be 9 nM. Besides, the IC50 in experiment [5] is 6 nM; in experiment [3] (setting [10]), > 11000 nM; in experiment [6], 3 nM; in experiment [7], 9 nM; in experiment [4] (setting [11]), 17 nM.
Turning to `CN1CCC(Oc2cc(-c3cnc4ccc(N5CCCC5c5cc(F)ccc5F)nn34)ccc2C#N)C1` (centres unmarked) [Table 5-Compound 22], in experiment [1], the “BaF3 TRKA-NGF CTG IC 50” value is 316 nM. Moreover, the IC50 in experiment [5] was 99 nM; in experiment [3] (setting [10]), 2250 nM; in experiment [6], 27 nM; in experiment [7] it was 132 nM; in experiment [4] (setting [11]), 88 nM.
Regarding `OC1CCN(c2cc(-c3cccc(-c4cnc5ccc(N6CCC[C@@H]6c6cccc(F)c6)nn45)n3)ccn2)CC1` [Compound 16-4, (R)-1-(6-(6-(2-(3-fluorophenyl)pyrrolidin-1-yl)imidazo[1,2-b]pyridazin-3-yl)-2,4′-bipyridin-2′-yl)piperidin-4-ol], the “IC50 in BaF3/TrkA-NFG CTG cellular assay” value in experiment [1] is 13 nM. Besides, the figures for the IC50 in experiment [2], in experiment [3] (setting [8]) and in experiment [4] (setting [9]) were 5.2 nM, 4410 nM and 12 nM, respectively.
As for `N#Cc1cccc(-n2cnc3ccc(N4C(=O)CSC4c4cc(F)ccc4F)nc32)c1` (centres unmarked) [Table 1-Compound 5], the “BaF3 TRKA-NGF CTG IC 50” value in experiment [1] was 3580 nM. Moreover, the IC50 in experiment [5] was 2290 nM; in experiment [3] (setting [10]), > 10000 nM; in experiment [6], 2610 nM; in experiment [7], 5670 nM; in experiment [4] (setting [11]), 4170 nM.
For `Fc1cccc(C2CCCN2c2ccc3ncc(-c4csc(N5CCCCC5)n4)n3n2)c1` (centres unmarked) [Table 3-Compound 6], in experiment [1], the “BaF3 TRKA-NGF CTG IC 50” value was determined as 540 nM. For the same molecule, the IC50 was 380 nM in experiment [5]; > 10000 nM in experiment [3] (setting [10]); 180 nM in experiment [6]; 360 nM in experiment [7]; 760 nM in experiment [4] (setting [11]).
